According to ChEMBL document CHEMBL1143658, “Discovery of 2-[(2,4-dichlorophenyl)amino]-N-[(tetrahydro- 2H-pyran-4-yl)methyl]-4-(trifluoromethyl)- 5-pyrimidinecarboxamide, a selective CB2 receptor agonist for the treatment of inflammatory pain” (J Med Chem, 2007):

Assays:
Cannabinoid receptor 2 [1] = target: T1, Cannabinoid receptor 2 (Homo sapiens, UniProt P34972); test: Efficacy at human recombinant CB2 receptor expressed in Saccharomyces cerevisiae cells relative to HU210; type: cell-based
Cytochrome P450 3A4 = Cytochrome P450 3A4 (Homo sapiens, UniProt P08684); test: Inhibition of human CYP3A4
Chain of Cytochrome P450 3A4 (P08684 whole entry): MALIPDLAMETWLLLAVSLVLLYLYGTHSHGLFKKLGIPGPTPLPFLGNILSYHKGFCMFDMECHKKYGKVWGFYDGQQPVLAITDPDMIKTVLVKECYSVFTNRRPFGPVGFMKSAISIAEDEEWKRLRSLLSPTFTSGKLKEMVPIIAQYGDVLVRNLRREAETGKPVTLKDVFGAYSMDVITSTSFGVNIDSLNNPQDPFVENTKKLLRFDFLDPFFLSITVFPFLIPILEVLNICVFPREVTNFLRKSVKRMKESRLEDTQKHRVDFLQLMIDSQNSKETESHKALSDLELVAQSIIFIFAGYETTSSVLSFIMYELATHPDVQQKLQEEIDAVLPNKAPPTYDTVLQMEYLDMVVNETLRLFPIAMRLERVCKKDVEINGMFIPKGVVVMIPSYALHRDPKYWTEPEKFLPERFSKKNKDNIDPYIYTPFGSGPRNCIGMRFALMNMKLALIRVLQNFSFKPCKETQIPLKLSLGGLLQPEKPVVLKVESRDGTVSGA

Cytochrome P450 2C19 = Cytochrome P450 2C19 (Homo sapiens, UniProt P33261); test: Inhibition of human CYP2C19; type: ADME
Chain of Cytochrome P450 2C19 (P33261 whole entry): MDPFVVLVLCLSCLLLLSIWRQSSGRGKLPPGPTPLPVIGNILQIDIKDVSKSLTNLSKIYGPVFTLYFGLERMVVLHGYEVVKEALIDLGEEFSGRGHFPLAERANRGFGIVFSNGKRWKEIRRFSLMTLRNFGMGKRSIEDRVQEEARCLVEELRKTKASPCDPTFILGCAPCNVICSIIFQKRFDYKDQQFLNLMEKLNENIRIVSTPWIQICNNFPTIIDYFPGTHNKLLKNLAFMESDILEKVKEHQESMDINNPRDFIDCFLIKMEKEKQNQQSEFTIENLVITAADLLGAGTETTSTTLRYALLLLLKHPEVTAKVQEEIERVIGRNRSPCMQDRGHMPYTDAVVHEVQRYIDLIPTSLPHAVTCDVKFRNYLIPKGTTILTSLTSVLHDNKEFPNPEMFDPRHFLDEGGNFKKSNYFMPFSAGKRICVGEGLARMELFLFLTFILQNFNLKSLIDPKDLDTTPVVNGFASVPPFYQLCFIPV

Cannabinoid receptor 2 [2] = target: T1, Cannabinoid receptor 2; test: Agonist activity at human recombinant CB2 receptor expressed in Saccharomyces cerevisiae cells; type: functional, cell-based
Cytochrome P450 1A2 = target: T2, Cytochrome P450 1A2 (Homo sapiens, UniProt P05177); test: Inhibition of human CYP1A2; type: ADME
T2 sequence (P05177 whole entry): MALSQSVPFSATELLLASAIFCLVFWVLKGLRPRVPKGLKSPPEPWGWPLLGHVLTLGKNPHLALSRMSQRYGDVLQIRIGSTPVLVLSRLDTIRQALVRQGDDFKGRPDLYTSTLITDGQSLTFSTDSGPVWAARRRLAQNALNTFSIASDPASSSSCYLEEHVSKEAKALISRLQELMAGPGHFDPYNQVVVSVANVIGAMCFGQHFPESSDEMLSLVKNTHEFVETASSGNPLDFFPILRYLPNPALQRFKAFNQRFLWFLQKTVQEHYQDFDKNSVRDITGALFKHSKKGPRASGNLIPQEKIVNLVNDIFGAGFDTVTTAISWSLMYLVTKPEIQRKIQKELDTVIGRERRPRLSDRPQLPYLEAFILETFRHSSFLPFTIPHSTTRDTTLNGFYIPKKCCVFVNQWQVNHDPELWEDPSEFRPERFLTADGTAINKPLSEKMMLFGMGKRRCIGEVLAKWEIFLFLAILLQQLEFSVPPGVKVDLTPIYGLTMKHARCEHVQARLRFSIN

Cytochrome P450 2C9 = Cytochrome P450 2C9 (Homo sapiens, UniProt P11712); test: Inhibition of human CYP2C9; type: ADME
Chain of Cytochrome P450 2C9 (P11712 whole entry): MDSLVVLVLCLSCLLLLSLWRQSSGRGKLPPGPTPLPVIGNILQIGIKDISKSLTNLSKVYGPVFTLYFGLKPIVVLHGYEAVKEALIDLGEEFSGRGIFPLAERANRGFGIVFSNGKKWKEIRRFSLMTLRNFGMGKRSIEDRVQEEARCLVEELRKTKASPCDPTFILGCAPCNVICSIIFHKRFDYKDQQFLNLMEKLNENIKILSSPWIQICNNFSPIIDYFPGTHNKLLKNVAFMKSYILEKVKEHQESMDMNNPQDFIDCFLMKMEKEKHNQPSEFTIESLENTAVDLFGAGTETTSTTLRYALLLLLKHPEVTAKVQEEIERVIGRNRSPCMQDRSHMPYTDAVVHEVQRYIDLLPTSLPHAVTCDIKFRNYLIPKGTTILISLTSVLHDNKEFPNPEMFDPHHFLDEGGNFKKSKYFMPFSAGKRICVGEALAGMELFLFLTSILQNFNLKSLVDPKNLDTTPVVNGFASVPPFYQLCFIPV

Cytochrome P450 2D6 = Cytochrome P450 2D6 (Homo sapiens, UniProt P10635); test: Inhibition of human CYP2D6; type: ADME
Chain of Cytochrome P450 2D6 (P10635 whole entry): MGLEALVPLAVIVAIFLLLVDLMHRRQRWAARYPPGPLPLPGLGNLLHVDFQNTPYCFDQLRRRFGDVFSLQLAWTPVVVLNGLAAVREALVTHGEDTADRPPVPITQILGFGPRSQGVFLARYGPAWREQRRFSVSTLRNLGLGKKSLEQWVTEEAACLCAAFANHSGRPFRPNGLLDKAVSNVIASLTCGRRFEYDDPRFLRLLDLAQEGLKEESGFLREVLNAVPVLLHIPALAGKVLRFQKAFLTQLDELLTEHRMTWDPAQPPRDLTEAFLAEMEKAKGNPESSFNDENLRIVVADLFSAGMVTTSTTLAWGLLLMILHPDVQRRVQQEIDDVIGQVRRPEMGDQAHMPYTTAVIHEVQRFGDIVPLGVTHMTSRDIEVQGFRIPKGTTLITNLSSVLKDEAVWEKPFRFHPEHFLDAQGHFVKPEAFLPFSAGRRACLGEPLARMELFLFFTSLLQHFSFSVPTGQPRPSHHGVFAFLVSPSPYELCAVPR

[3] = target: Cannabinoid receptor 1 (Homo sapiens) (UniProt P21554); test: Agonist activity at recombinant human CB1 receptor expressed in Saccharomyces cerevisiae cells at 2 uM; type: functional, cell-based
Chain of Cannabinoid receptor 1 (Homo sapiens) (P21554 whole entry): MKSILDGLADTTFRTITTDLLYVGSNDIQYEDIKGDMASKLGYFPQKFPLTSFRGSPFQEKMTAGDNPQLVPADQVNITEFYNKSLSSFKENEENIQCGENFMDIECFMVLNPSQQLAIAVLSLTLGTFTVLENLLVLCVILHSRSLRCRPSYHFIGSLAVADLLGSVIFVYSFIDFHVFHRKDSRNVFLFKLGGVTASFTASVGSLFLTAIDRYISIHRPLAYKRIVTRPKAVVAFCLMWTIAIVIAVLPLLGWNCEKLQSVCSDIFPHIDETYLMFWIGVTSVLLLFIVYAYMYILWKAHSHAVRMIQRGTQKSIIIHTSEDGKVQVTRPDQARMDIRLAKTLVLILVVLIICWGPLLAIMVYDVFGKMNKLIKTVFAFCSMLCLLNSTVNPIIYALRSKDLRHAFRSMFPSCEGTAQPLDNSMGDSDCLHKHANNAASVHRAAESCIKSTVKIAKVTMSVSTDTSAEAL

Liver microsomes = test: Intrinsic clearance in rat liver microsome; type: ADME

T1 sequence (P34972 whole entry): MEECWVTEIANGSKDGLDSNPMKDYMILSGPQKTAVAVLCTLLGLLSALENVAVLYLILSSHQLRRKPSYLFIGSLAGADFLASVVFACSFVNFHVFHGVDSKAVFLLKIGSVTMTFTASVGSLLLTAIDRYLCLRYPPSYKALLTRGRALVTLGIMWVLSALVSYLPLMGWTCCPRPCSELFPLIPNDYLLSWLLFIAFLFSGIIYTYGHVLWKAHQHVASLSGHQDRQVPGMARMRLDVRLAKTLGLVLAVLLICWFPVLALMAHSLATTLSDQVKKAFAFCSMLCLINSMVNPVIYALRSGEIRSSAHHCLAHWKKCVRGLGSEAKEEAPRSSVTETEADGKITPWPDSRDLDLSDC

SMILES | Efficacy (Cannabinoid receptor 2 [1]) | IC50 (Cytochrome P450 3A4) | IC50 (Cytochrome P450 2C19) | EC50 (Cannabinoid receptor 2 [2]) | IC50 (Cytochrome P450 1A2) | IC50 (Cytochrome P450 2C9) | IC50 (Cytochrome P450 2D6) | Efficacy [3] | CL (Liver microsomes)
O=C(NCC1CCOCC1)c1cnc(Nc2ccc(Cl)cc2F)nc1C(F)(F)F | 80% | > 100 µM | > 100 µM | 0.2 µM | > 100 µM | > 100 µM | > 100 µM | – | –
O=C(NCc1ccncc1)c1cnc(Nc2cccc(Cl)c2)nc1C(F)(F)F | 94% | < 0.1 µM | 1.9 µM | 0.06 µM | 0.4 µM | 0.9 µM | < 0.1 µM | – | –
CC(=O)Nc1ccc(Nc2ncc(C(=O)NCc3ccccc3)c(C(F)(F)F)n2)cc1 | – | – | – | > 25 µM | – | – | – | – | –
O=C(NCC1CCOCC1)c1cnc(Nc2cc(Cl)ccc2F)nc1C(F)(F)F | 86% | 68 µM | > 100 µM | 0.125 µM | 26 µM | 37 µM | > 100 µM | – | –
N#Cc1cccc(Nc2ncc(C(=O)NCc3ccccc3)c(C(F)(F)F)n2)c1 | 76% | – | – | 0.455 µM | – | – | – | – | –
O=C(NCc1ccccc1)c1cnc(Nc2ccc(Cl)cc2)nc1C(F)(F)F | 49% | – | – | 0.126 µM | – | – | – | – | –
COc1ccccc1Nc1ncc(C(=O)NCc2ccccc2)c(C(F)(F)F)n1 | 77% | – | – | 0.158 µM | – | – | – | – | –
O=C(NCC1(O)CCCCC1)c1cnc(Nc2cccc(Cl)c2)nc1C(F)(F)F | 83% | – | 17 µM | 0.125 µM | 11 µM | – | 13 µM | – | –
O=C(NCC1CCOCC1)c1cnc(Nc2cccc(Cl)c2F)nc1C(F)(F)F | 90% | > 100 µM | > 100 µM | 0.125 µM | 99 µM | 75 µM | > 100 µM | – | –
O=C(NCC1CCOCC1)c1cnc(Nc2cccc(Cl)c2)nc1C(F)(F)F | 89% | 51 µM | 56 µM | 0.05 µM | > 100 µM | 18 µM | 51 µM | – | –
COc1cccc(Nc2ncc(C(=O)NCc3ccccc3)c(C(F)(F)F)n2)c1 | 76% | – | – | 0.465 µM | – | – | – | – | –
COc1cccc(CNC(=O)c2cnc(Nc3cccc(Cl)c3)nc2C(F)(F)F)c1 | 20% | – | – | 25 µM | – | – | – | – | –
COc1ccccc1CNC(=O)c1cnc(Nc2cccc(Cl)c2)nc1C(F)(F)F | 78% | – | – | > 25 µM | – | – | – | – | –
O=C(NCc1cccc(Cl)c1)c1cnc(Nc2cccc(Cl)c2)nc1C(F)(F)F | 18% | – | – | 1.58 µM | – | – | – | – | –
O=C(NCC1CCOCC1)c1cnc(Nc2ccc(Cl)c(Cl)c2)nc1C(F)(F)F | 83% | > 25 µM | > 25 µM | 0.049 µM | 8 µM | > 25 µM | > 25 µM | 10% | –
COc1ccc(CNC(=O)c2cnc(Nc3cccc(Cl)c3)nc2C(F)(F)F)cc1 | 66% | – | – | 0.214 µM | – | – | – | – | –
N#Cc1ccc(Nc2ncc(C(=O)NCc3ccccc3)c(C(F)(F)F)n2)cc1 | 67% | – | – | 0.4 µM | – | – | – | – | –
O=C(NCC1CCOCC1)c1cnc(Nc2cccc(F)c2F)nc1C(F)(F)F | 90% | – | – | 0.4 µM | – | – | – | – | –
O=C(NCc1ccccc1)c1cnc(Nc2cccc(Cl)c2)nc1C(F)(F)F | 82% | – | – | 0.245 µM | – | – | – | – | –
O=C(NCC1CCNCC1)c1cnc(Nc2cccc(Cl)c2)nc1C(F)(F)F | 46% | – | – | 5 µM | – | – | – | – | –
O=C(NCc1ccc(F)cc1)c1cnc(Nc2cccc(Cl)c2)nc1C(F)(F)F | 78% | 5 µM | 12 µM | 0.063 µM | 8 µM | 8 µM | 1.5 µM | – | –
O=C(NCc1ccccc1)c1cnc(Nc2ccccc2Cl)nc1C(F)(F)F | 48% | – | – | 0.25 µM | – | – | – | – | –

SMILES | Efficacy (Cannabinoid receptor 2 [1]) | IC50 (Cytochrome P450 3A4) | IC50 (Cytochrome P450 2C19) | EC50 (Cannabinoid receptor 2 [2]) | IC50 (Cytochrome P450 1A2) | IC50 (Cytochrome P450 2C9) | IC50 (Cytochrome P450 2D6) | Efficacy [3] | CL (Liver microsomes)
O=C(NCC1CCOCC1)c1cnc(Nc2c(Cl)cccc2Cl)nc1C(F)(F)F | 86% | – | – | 0.63 µM | – | – | – | – | –
O=C(NCC1CCCC1)c1cnc(Nc2cccc(Cl)c2)nc1C(F)(F)F | 83% | 65 µM | 14 µM | 0.08 µM | 32 µM | 6 µM | > 100 µM | – | –
O=C(NCc1ccco1)c1cnc(Nc2ccccc2)nc1C(F)(F)F | 62% | – | – | 0.63 µM | – | – | – | – | 4.6 mL/min/g
O=C(NCC1CCOCC1)c1cnc(Nc2cc(Cl)ccc2Cl)nc1C(F)(F)F | 85% | – | – | 0.1 µM | – | – | – | – | –
O=C(NCC1CCOCC1)c1cnc(Nc2cccc(Cl)c2Cl)nc1C(F)(F)F | 90% | – | – | 0.08 µM | – | – | – | – | –
O=C(NCC1CCOCC1)c1cnc(Nc2cc(Cl)cc(Cl)c2)nc1C(F)(F)F | 85% | 38 µM | 14 µM | 0.033 µM | > 100 µM | 13 µM | 27 µM | – | –
O=C(NCC1CCOCC1)c1cnc(Nc2cc(F)cc(F)c2)nc1C(F)(F)F | 91% | > 100 µM | 91 µM | 0.125 µM | 24 µM | > 100 µM | 45 µM | – | –
O=C(NCc1ccccc1)c1cnc(Nc2ccccc2)nc1C(F)(F)F | 45% | – | – | 0.4 µM | – | – | – | – | < 0.5 mL/min/g
O=C(OCc1ccco1)c1cnc(N2CCOCC2)nc1C(F)(F)F | 55% | – | – | 0.63 µM | – | – | – | – | –
O=C(NCC1CC1)c1cnc(Nc2cccc(Cl)c2)nc1C(F)(F)F | 79% | – | – | 0.08 µM | – | – | – | – | –
CC(=O)Nc1cccc(Nc2ncc(C(=O)NCc3ccccc3)c(C(F)(F)F)n2)c1 | – | – | – | > 25 µM | – | – | – | – | –
O=C(NCc1ccccc1)c1cnc(Nc2cccc(Br)c2)nc1C(F)(F)F | 81% | – | – | 0.23 µM | – | – | – | – | –
O=C(NCC1CCOCC1)c1cnc(Nc2ccc(F)cc2F)nc1C(F)(F)F | 81% | – | – | 0.63 µM | – | – | – | – | –
O=C(NCc1ccccc1)c1cnc(Nc2cccc(F)c2)nc1C(F)(F)F | 88% | – | – | 0.31 µM | – | – | – | – | –
O=C(NCc1ccccc1Cl)c1cnc(Nc2cccc(Cl)c2)nc1C(F)(F)F | 21% | – | – | 10 µM | – | – | – | – | –
N#Cc1ccc(CNC(=O)c2cnc(Nc3cccc(Cl)c3)nc2C(F)(F)F)cc1 | 69% | – | – | 0.22 µM | – | – | – | – | –
CC(C)(C)c1ccc(Nc2ncc(C(=O)NCc3ccccc3)c(C(F)(F)F)n2)cc1 | – | – | – | > 25 µM | – | – | – | – | –
O=C(NCC1CCOCC1)c1cnc(Nc2ccc(F)cc2Cl)nc1C(F)(F)F | 85% | – | – | 0.4 µM | – | – | – | – | –
O=C(NCc1ccc(Cl)cc1)c1cnc(Nc2cccc(Cl)c2)nc1C(F)(F)F | 65% | – | – | 0.4 µM | – | – | – | – | –
O=C(NCC1CCC1)c1cnc(Nc2cccc(Cl)c2)nc1C(F)(F)F | 82% | 75 µM | 8 µM | 0.04 µM | 8 µM | 3 µM | 22 µM | – | –
O=C(NCC1CCCCC1)c1cnc(Nc2cccc(Cl)c2)nc1C(F)(F)F | 82% | 82 µM | 19 µM | 0.08 µM | > 100 µM | 9 µM | > 100 µM | – | –
COc1ccc(Nc2ncc(C(=O)NCc3ccccc3)c(C(F)(F)F)n2)cc1 | 32% | – | – | 0.2 µM | – | – | – | – | –
